pIC50: −log10 of the molar value.
Key:
Type in all cases: biochemical
SIK1 = SIK1 (Homo sapiens, UniProt P57059); assay: Enzymatic activity assay SIK1, RapidFire mass spectrometry (phosphorylation of CHK-peptide); settings: RapidFire MS, inhibition of SIK1; read-out: SIK1 RF IC50
How it was run: (§1)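 Compounds (12-point, 3-fold, generally 30 μM to 170 pM) were pre-incubated 30 min at ambient temperature with SIK1 (5 nM), SIK2 (0.5 nM) or SIK3 (1.5 nM) in HEPES pH 7.0/magnesium acetate buffer. CHK-peptide (10 μM solution) and ATP (100 μM solution) were then added for 45 min before formic acid quench.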

SIK2 = SIK2 (Homo sapiens, UniProt Q9H0K1); assay: Enzymatic activity assay SIK2, RapidFire mass spectrometry (phosphorylation of CHK-peptide); settings: RapidFire MS, inhibition of SIK2; read-out: SIK2 RF IC50
Sequence of SIK2 (Q9H0K1 whole entry): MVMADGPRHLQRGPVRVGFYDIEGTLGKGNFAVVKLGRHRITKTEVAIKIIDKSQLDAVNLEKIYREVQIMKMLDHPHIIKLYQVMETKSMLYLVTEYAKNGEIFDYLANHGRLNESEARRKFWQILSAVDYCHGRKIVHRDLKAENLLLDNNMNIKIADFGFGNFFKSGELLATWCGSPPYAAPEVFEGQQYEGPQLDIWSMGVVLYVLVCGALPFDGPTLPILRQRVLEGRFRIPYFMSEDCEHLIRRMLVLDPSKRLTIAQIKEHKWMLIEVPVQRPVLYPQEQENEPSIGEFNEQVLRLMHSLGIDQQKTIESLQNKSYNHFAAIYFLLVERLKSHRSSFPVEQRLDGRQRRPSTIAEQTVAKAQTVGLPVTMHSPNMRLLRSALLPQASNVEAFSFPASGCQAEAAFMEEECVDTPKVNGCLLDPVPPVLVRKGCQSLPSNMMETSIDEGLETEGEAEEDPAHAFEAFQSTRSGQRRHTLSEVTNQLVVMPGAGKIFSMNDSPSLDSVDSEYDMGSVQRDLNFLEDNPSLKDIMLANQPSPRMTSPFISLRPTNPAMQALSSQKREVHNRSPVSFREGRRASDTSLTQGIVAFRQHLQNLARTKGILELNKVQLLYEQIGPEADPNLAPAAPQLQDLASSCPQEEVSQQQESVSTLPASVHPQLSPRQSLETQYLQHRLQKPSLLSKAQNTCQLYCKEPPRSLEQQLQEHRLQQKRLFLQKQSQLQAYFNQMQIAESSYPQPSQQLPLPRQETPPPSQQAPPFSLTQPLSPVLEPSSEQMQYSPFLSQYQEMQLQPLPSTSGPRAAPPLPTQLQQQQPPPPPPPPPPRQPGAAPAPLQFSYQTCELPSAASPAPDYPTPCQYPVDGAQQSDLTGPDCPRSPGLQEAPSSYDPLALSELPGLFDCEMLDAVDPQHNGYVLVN
How it was run: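 SIK2 (0.5 nM) in pH 7.0 HEPES buffer with 10 mM Mg acetate phosphorylates CHK-peptide (10 μM solution) with 100 μM ATP solution, 45 min ambient, then formic acid quench.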

SIK3 = SIK3 (Homo sapiens, UniProt Q9Y2K2); assay: Enzymatic activity assay SIK3, RapidFire mass spectrometry (phosphorylation of CHK-peptide); settings: RapidFire MS, inhibition of SIK3; read-out: SIK3 RF IC50
Sequence of SIK3 (Q9Y2K2 whole entry): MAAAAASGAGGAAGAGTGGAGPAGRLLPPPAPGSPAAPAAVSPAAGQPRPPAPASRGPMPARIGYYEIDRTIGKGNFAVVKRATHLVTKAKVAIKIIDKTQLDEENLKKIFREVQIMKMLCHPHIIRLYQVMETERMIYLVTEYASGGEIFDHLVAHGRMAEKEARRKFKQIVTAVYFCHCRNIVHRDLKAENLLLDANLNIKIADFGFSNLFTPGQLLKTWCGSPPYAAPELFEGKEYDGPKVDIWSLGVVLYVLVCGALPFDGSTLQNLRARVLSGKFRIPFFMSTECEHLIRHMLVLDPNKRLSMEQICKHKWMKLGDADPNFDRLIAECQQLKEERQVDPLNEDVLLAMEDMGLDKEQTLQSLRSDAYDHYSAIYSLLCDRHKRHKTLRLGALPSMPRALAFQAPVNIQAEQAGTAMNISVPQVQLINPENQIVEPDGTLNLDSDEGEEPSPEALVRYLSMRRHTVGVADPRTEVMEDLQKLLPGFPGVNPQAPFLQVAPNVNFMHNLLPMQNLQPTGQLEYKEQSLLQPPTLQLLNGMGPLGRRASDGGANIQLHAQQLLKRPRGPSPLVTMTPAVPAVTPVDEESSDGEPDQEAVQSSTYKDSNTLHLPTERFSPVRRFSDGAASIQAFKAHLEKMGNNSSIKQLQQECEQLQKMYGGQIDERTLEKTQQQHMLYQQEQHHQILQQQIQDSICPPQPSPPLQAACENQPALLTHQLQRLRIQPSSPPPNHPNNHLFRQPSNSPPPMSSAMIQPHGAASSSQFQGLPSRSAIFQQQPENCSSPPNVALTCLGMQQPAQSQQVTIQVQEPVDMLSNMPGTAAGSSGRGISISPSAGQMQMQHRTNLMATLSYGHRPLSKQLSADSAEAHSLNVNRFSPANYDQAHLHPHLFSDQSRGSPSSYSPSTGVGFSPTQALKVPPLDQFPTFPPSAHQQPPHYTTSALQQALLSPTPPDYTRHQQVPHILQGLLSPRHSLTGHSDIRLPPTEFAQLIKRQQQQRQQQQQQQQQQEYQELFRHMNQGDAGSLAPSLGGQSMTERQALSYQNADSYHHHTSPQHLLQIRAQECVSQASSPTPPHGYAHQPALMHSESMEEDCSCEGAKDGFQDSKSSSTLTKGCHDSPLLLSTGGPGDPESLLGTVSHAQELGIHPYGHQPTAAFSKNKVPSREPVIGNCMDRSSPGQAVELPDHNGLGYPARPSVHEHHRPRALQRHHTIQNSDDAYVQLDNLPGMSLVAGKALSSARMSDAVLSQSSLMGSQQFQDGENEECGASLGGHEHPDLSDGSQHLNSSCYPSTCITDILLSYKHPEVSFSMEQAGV
How it was run: as §1

Sequence of SIK1 (P57059 whole entry): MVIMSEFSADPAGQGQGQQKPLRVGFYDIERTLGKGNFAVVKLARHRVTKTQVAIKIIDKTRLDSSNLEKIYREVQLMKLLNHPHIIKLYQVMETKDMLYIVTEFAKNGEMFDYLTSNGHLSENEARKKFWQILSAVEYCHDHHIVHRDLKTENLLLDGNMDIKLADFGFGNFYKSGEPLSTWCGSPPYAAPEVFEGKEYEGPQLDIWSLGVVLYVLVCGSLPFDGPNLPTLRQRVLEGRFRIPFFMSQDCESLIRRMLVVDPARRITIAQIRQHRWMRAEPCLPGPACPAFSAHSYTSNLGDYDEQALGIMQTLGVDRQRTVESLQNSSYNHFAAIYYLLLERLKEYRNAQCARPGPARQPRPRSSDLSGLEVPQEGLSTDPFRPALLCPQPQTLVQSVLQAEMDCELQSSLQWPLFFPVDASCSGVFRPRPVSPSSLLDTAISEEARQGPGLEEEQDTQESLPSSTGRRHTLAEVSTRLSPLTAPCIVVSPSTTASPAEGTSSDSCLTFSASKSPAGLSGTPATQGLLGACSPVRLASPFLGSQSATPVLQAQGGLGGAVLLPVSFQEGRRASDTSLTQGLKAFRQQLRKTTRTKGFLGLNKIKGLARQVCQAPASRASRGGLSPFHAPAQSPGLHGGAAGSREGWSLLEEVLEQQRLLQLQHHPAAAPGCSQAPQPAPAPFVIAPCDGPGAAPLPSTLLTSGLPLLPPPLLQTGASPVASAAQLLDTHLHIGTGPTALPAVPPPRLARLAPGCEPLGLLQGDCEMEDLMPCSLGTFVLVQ

Cc1ccc(Nc2ccc3c(c2)ncn3-c2ccc(C(C)O)c(-n3nc(C(F)(F)F)c4c3CCN(C3COC3)C4)n2)nn1 (stereo not drawn) [Example 177, 1-[6-[5-[(6-Methylpyridazin-3-yl)amino]benzimidazol-1-yl]-2-[5-(oxetan-3-yl)-3-(trifluoromethyl)-6,7-dihydro-4H-pyrazolo[4,3-c]pyridin-1-yl]-3-pyridyl]ethanol]
pIC50 (SIK1): 6.60
pIC50 (SIK2): 8.55
pIC50 (SIK3): 8.51

Cc1ccc(Nc2ccc3c(c2)ncn3-c2ccc(C(C)O)c(-n3nc(C#N)c4c3C(F)(F)CNC4)n2)nn1 (stereo not drawn) [Example 305, 7,7-difluoro-1-[3-(1-hydroxyethyl)-6-[5-[(6-methylpyridazin-3-yl)amino]benzimidazol-1-yl]-2-pyridyl]-5,6-dihydro-4~{H}-pyrazolo[4,3-c]pyridine-3-carbonitrile]
pIC50 (SIK1): 6.81
pIC50 (SIK2): 8.77
pIC50 (SIK3): 8.68

Cc1cc(C#N)nn1-c1nc(-n2cnc3cc(Nc4ccc(F)c(F)c4F)c(F)cc32)ccc1C(C)O (stereo not drawn) [Example 378, 1-[6-[6-fluoro-5-(2,3,4-trifluoroanilino)benzimidazol-1-yl]-3-(1-hydroxyethyl)-2-pyridyl]-5-methyl-pyrazole-3-carbonitrile]
pIC50 (SIK1): 7.10
pIC50 (SIK2): 7.49
pIC50 (SIK3): 7.66

Cc1ccc(Nc2ccc3ncn(-c4ccc(C(O)C(F)F)c(-n5nc(C#N)cc5C)n4)c3c2)nn1 (stereo not drawn) [Example 199, 1-[3-(2,2-Difluoro-1-hydroxy-ethyl)-6-[6-[(6-methylpyridazin-3-yl)amino]benzimidazol-1-yl]-2-pyridyl]-5-methyl-pyrazole-3-carbonitrile]
pIC50 (SIK1): 6.61
pIC50 (SIK2): 6.77
pIC50 (SIK3): 6.43

Cc1ccc(Nc2ccc3c(c2)ncn3-c2ccc(C(C)O)c(-c3ccoc3C#N)n2)nn1 (stereo not drawn) [Example 204, 3-[3-(1-Hydroxyethyl)-6-[5-[(6-methylpyridazin-3-yl)amino]benzimidazol-1-yl]-2-pyridyl]furan-2-carbonitrile]
pIC50 (SIK1): 5.00
pIC50 (SIK2): 6.85
pIC50 (SIK3): 7.46

Cc1nn(CC(F)(F)F)cc1-c1nc(-n2cnc3cc(Oc4ccc(CN5CCN(C)CC5)nn4)ccc32)ccc1C(C)O (stereo not drawn) [Example 352, 1-[6-[5-[6-[(4-methylpiperazin-1-yl)methyl]pyridazin-3-yl]oxybenzimidazol-1-yl]-2-[3-methyl-1-(2,2,2-trifluoroethyl)pyrazol-4-yl]-3-pyridyl]ethanol]
pIC50 (SIK1): 5.63
pIC50 (SIK2): 7.78
pIC50 (SIK3): 7.62

Cc1ccc(Nc2ccc3c(c2)ncn3-c2ccc(C(C)O)c(-n3nc(S(C)(=O)=O)cc3C)n2)nn1 (stereo not drawn) [Example 145, 1-[2-(5-Methyl-3-methylsulfonyl-pyrazol-1-yl)-6-[5-[(6-methylpyridazin-3-yl)amino]benzimidazol-1-yl]-3-pyridyl]ethanol]
pIC50 (SIK1): 6.26
pIC50 (SIK2): 8.05
pIC50 (SIK3): 8.85

Cc1ccc(Nc2ccc3c(c2)ncn3-c2ccc(CO)c(-c3cnn(CC(F)(F)F)c3C)n2)nn1 [Example 316, [6-[5-[(6-methylpyridazin-3-yl)amino]benzimidazol-1-yl]-2-[5-methyl-1-(2,2,2-trifluoroethyl)pyrazol-4-yl]-3-pyridyl]methanol]
pIC50 (SIK1): 6.01
pIC50 (SIK2): 7.82
pIC50 (SIK3): 8.34

Cc1ccc(Nc2ccc3c(c2)ncn3-c2ccc(C(C)O)c(-c3cn(CC(F)(F)F)nc3C)n2)nn1 (stereo not drawn) [Example 143, 1-[6-[5-[(6-Methylpyridazin-3-yl)amino]benzimidazol-1-yl]-2-[3-methyl-1-(2,2,2-trifluoroethyl)pyrazol-4-yl]-3-pyridyl]ethanol]
pIC50 (SIK1): 6.99
pIC50 (SIK2): 9.15
pIC50 (SIK3): 8.89

Cc1ccc(Nc2ccc3ncn(-c4ccc(C(C)O)c(N5CCN(CC(F)(F)F)C(=O)C5)n4)c3c2)nn1 (stereo not drawn) [Example 137, 4-[3-(1-Hydroxyethyl)-6-[6-[(6-methylpyridazin-3-yl)amino]benzimidazol-1-yl]-2-pyridyl]-1-(2,2,2-trifluoroethyl)piperazin-2-one]
pIC50 (SIK1): 5.27
pIC50 (SIK2): 5.79
pIC50 (SIK3): 6.13

Cc1ccc(Nc2ccc3c(c2)ncn3-c2ccc(C(C)O)c(-c3nn(CC(F)(F)F)nc3C)n2)nn1 (stereo not drawn) [Example 308, 1-[6-[5-[(6-methylpyridazin-3-yl)amino]benzimidazol-1-yl]-2-[5-methyl-2-(2,2,2-trifluoroethyl)triazol-4-yl]-3-pyridyl]ethanol]
pIC50 (SIK1): 7.24
pIC50 (SIK2): 9.40
pIC50 (SIK3): 9.40

Cc1cc(C#N)nn1-c1nc(-n2cnc3ccc(CN4CCCCC4=O)cc32)ccc1C(C)O (stereo not drawn) [Example 215, 1-[3-(1-Hydroxyethyl)-6-[6-[(2-oxo-1-piperidyl)methyl]benzimidazol-1-yl]-2-pyridyl]-5-methyl-pyrazole-3-carbonitrile]
pIC50 (SIK1): 6.46
pIC50 (SIK2): 6.43
pIC50 (SIK3): 5.73

Cc1cc(C#N)nn1-c1nc(-n2cnc3ccc(CN4CCCS4(=O)=O)cc32)ccc1C(C)O (stereo not drawn) [Example 202, 1-[6-[6-[(1,1-Dioxo-1,2-thiazolidin-2-yl)methyl]benzimidazol-1-yl]-3-(1-hydroxyethyl)-2-pyridyl]-5-methyl-pyrazole-3-carbonitrile]
pIC50 (SIK1): 5.99
pIC50 (SIK2): 6.30
pIC50 (SIK3): 6.69

Cc1ccc(Nc2ccc3c(c2)ncn3-c2ccc([C@@H](C)O)c(-n3nc(C(F)F)cc3C(F)F)n2)nn1 [Example 288, (1R)-1-[2-[3,5-bis(difluoromethyl)pyrazol-1-yl]-6-[5-[(6-methylpyridazin-3-yl)amino]benzimidazol-1-yl]-3-pyridyl]ethanol]
pIC50 (SIK1): 5.80
pIC50 (SIK2): 7.88
pIC50 (SIK3): 8.24

Cc1ccc(Nc2ccc3c(c2)ncn3-c2ccc(C(C)O)c(N3CCC4(C3)CC4(F)F)n2)nn1 (stereo not drawn) [Example 299, 1-[2-(2,2-difluoro-5-azaspiro[2.4]heptan-5-yl)-6-[5-[(6-methylpyridazin-3-yl)amino]benzimidazol-1-yl]-3-pyridyl]ethanol]
pIC50 (SIK1): 6.56
pIC50 (SIK2): 8.62
pIC50 (SIK3): 9.15

Cc1cc(C#N)nn1-c1nc(-n2cnc3ccc(-c4ccn(C)c(=O)n4)cc32)ccc1C(C)O (stereo not drawn) [Example 336, 1-[3-(1-hydroxyethyl)-6-[6-(1-methyl-2-oxo-pyrimidin-4-yl)benzimidazol-1-yl]-2-pyridyl]-5-methyl-pyrazole-3-carbonitrile]
pIC50 (SIK1): 7.54
pIC50 (SIK2): 7.54
pIC50 (SIK3): 6.86

Cc1ccc(Nc2cc3ncn(-c4ccc(C(C)O)c(-n5nc(C#N)cc5C)n4)c3cc2OCCN2CCOCC2)cn1 (stereo not drawn) [Example 297, 1-[3-(1-hydroxyethyl)-6-[5-[(6-methyl-3-pyridyl)amino]-6-(2-morpholinoethoxy)benzimidazol-1-yl]-2-pyridyl]-5-methyl-pyrazole-3-carbonitrile]
pIC50 (SIK1): 8.00
pIC50 (SIK2): 8.21
pIC50 (SIK3): 7.83

Cc1cc(C#N)nn1-c1nc(-n2cnc3cc(Nc4ccc(C(F)F)nn4)ccc32)ccc1C(C)O (stereo not drawn) [Example 90, 1-[6-[5-[[6-(Difluoromethyl)pyridazin-3-yl]amino]benzimidazol-1-yl]-3-(1-hydroxyethyl)-2-pyridyl]-5-methyl-pyrazole-3-carbonitrile]
pIC50 (SIK1): 7.28
pIC50 (SIK2): 9.05
pIC50 (SIK3): 9.30

Cc1ccc(Nc2ccc3c(c2)ncn3-c2ccc(C(C)O)c(N3C[C@@H](C#N)C[C@H]3C)n2)nn1 (stereo partly drawn) [Example 254, (3S,5R)-1-[3-(1-hydroxyethyl)-6-[5-[(6-methylpyridazin-3-yl)amino]benzimidazol-1-yl]-2-pyridyl]-5-methyl-pyrrolidine-3-carbonitrile]
pIC50 (SIK1): 5.29
pIC50 (SIK2): 6.82
pIC50 (SIK3): 7.43

COc1cc2ncn(-c3ccc(CO)c(N4CCCCC4)n3)c2cc1OC [Example 28, (6-(5,6-Dimethoxy-1H-benzo[d]imidazol-1-yl)-2-(piperidin-1-yl)pyridin-3-yl)methanol]
pIC50 (SIK1): 6.49
pIC50 (SIK2): 6.57
pIC50 (SIK3): 6.15

Cc1cc(C#N)nn1-c1nc(-n2cnc3cc(N4CCN(C)CC4)ccc32)ccc1C(C)O (stereo not drawn) [Example 65, 1-[3-(1-Hydroxyethyl)-6-[5-(4-methylpiperazin-1-yl)benzimidazol-1-yl]-2-pyridyl]-5-methyl-pyrazole-3-carbonitrile]
pIC50 (SIK1): 6.19
pIC50 (SIK2): 7.20
pIC50 (SIK3): 7.09

COc1cc2ncn(-c3ccc(CO)c(-c4cccc(Cl)c4)n3)c2cc1OC [Example 1, (2-(3-chlorophenyl)-6-(5,6-dimethoxy-1H-benzo[d]imidazol-1-yl)pyridin-3-yl)methanol]
pIC50 (SIK1): 6.82
pIC50 (SIK2): 6.98
pIC50 (SIK3): 6.45

Cc1cc(C#N)nn1-c1nc(-n2cnc3cc(N4CCN(C5COC5)CC4)ccc32)ccc1C(C)O (stereo not drawn) [Example 67, 1-[3-(1-Hydroxyethyl)-6-[5-[4-(oxetan-3-yl)piperazin-1-yl]benzimidazol-1-yl]-2-pyridyl]-5-methyl-pyrazole-3-carbonitrile]
pIC50 (SIK1): 6.12
pIC50 (SIK2): 6.88
pIC50 (SIK3): 7.01

COc1cc2ncn(-c3ccc([C@@H](C)O)c(-c4ccn(C)c(=O)c4)n3)c2cc1OC [Example 42, (R)-6-(5,6-Dimethoxy-1H-benzo[d]imidazol-1-yl)-3-(1-hydroxyethyl)-1′-methyl-[2,4′-bipyridin]-2′(1′H)-one]
pIC50 (SIK1): 5.89
pIC50 (SIK2): 5.98
pIC50 (SIK3): 5.69

Cc1ccc(Nc2ccc3c(c2)ncn3-c2ccc(C(C)O)c(-c3cnn(CC4CCC4)c3C)n2)nn1 (stereo not drawn) [Example 273, 1-[2-[1-(Cyclobutylmethyl)-5-methyl-pyrazol-4-yl]-6-[5-[(6-methylpyridazin-3-yl)amino]benzimidazol-1-yl]-3-pyridyl]ethanol; formic acid]
pIC50 (SIK1): 6.94
pIC50 (SIK2): 8.92
pIC50 (SIK3): 8.82

Reference: US20240383875A1, “Benzimidazole Pyridine Derivatives” (Hoffmann-La Roche Inc., priority 2022, published 2024)
